Reference: US12172995B2, “Substituted indole and indazole compounds” (BRISTOL-MYERS SQUIBB COMPANY, priority 2018, dated 2024)

Columns and labels:
Format in all cases: cell-based
[1] = molecular target: T1, human TLR7 (Homo sapiens, UniProt Q9NYK1); experiment: TLR7 inhibition reporter assay (HEK-Blue SEAP); conditions: HEK-Blue cells overexpressing human TLR7, stimulated with gardiquimod 7.5 μM, 22 hour incubation
T1 construct: host or cells: HEK-Blue cells
T1 sequence (Q9NYK1 27-1049): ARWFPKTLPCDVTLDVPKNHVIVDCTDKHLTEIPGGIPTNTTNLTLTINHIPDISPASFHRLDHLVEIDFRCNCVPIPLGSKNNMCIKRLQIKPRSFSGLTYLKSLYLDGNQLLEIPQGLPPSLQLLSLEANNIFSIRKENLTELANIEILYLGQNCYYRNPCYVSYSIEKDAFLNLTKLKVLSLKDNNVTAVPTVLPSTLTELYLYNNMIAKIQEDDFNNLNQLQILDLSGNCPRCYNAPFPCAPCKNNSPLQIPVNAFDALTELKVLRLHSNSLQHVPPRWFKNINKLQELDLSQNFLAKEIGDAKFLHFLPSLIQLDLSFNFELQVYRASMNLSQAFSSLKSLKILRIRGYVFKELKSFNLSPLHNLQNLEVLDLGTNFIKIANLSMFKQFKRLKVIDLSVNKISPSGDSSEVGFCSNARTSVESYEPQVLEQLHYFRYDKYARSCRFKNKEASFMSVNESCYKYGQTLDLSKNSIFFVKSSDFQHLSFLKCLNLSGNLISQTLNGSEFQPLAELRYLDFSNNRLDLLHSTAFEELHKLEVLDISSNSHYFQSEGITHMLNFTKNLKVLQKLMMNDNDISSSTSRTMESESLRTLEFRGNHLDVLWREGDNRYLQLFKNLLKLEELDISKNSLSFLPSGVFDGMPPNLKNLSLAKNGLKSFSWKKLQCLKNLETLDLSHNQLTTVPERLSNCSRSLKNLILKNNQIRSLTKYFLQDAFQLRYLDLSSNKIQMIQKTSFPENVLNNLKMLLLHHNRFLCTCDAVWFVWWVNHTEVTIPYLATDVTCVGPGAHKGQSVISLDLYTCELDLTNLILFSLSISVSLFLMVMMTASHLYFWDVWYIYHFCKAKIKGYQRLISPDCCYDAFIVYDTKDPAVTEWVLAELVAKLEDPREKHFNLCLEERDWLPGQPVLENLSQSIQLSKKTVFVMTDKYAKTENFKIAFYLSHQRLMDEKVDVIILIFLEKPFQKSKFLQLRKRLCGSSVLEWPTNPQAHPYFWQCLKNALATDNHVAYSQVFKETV
Method in brief: (§1)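 Reporter HEK-Blue lines; cpd 0.05 nM–50 μM, 30 min preincubation RT; agonist: TLR7 gardiquimod 7.5 μM, TLR8 R848 15.9 μM, TLR9 ODN2006 5 nM; 22 h 37 °C; SEAP detected colorimetrically; % inhib vs known inhibitor.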

[2] = molecular target: T2, human TLR8 (Homo sapiens, UniProt Q9NR97); experiment: TLR8 inhibition reporter assay (HEK-Blue SEAP); conditions: HEK-Blue cells overexpressing human TLR8, stimulated with R848 15.9 μM, 22 hour incubation
T2 construct: host or cells: HEK-Blue cells
T2 sequence (Q9NR97 27-1041): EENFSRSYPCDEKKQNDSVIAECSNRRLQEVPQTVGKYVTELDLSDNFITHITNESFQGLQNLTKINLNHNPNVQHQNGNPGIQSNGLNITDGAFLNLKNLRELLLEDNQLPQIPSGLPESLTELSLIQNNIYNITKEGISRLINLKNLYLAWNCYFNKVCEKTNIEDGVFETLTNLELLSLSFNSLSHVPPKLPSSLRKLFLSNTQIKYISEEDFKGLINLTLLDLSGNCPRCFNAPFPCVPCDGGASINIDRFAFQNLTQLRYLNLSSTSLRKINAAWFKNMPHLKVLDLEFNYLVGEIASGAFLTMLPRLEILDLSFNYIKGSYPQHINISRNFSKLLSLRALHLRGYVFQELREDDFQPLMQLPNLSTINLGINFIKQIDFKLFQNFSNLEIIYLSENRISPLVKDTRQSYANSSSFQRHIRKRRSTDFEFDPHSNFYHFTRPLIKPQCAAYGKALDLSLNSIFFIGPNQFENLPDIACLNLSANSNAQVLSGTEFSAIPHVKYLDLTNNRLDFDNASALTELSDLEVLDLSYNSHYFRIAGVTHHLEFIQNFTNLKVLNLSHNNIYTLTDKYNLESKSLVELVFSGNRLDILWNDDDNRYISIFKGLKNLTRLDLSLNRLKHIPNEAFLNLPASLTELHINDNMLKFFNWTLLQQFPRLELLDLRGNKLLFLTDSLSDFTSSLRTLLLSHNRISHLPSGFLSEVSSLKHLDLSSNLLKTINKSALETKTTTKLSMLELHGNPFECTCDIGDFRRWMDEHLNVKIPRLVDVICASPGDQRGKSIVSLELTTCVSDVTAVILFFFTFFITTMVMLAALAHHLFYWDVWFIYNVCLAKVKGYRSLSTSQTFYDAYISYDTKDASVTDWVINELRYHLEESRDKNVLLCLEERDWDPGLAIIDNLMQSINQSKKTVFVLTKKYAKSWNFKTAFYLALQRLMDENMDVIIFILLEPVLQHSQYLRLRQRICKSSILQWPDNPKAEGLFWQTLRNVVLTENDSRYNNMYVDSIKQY
Method in brief: as §1

[3] = molecular target: T3, human TLR9 (Homo sapiens, UniProt Q9NR96); experiment: TLR9 inhibition reporter assay (HEK-Blue SEAP); conditions: HEK-Blue cells overexpressing human TLR9, stimulated with ODN2006 5 nM, 22 hour incubation
T3 construct: host or cells: HEK-Blue cells
T3 sequence (Q9NR96 26-1032): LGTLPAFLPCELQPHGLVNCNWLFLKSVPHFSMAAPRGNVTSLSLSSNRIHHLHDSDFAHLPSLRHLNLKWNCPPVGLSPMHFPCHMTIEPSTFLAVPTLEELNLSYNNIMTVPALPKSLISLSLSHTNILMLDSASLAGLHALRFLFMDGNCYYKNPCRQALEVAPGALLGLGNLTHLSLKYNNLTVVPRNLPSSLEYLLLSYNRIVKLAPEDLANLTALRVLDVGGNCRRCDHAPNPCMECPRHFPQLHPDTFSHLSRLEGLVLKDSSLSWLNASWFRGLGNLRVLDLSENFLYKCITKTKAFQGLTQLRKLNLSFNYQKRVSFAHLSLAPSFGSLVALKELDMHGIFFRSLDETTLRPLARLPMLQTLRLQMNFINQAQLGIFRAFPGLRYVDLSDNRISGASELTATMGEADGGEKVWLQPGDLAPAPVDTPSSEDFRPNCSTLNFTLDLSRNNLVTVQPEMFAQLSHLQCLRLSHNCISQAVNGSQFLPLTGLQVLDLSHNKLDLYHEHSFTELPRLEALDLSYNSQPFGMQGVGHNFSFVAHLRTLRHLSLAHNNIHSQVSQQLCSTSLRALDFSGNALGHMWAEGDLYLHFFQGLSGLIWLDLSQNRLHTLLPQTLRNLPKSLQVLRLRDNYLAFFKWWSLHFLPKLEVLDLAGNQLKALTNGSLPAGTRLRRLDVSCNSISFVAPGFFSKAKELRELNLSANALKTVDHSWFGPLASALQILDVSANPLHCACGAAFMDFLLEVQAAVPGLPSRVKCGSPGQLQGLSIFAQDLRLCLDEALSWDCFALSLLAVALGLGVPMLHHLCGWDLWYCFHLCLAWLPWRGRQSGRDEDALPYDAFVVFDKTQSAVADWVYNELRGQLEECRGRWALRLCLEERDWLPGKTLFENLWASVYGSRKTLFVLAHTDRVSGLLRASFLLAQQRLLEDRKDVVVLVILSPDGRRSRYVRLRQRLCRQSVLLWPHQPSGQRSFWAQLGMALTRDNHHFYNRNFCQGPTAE
Method in brief: as §1

Row | IC50 [1] [nM] | IC50 [2] [nM] | IC50 [3] [nM] | Structure (SMILES)
1 | 0.2 | 0.1 | 4200 | Cc1cc(-c2cc3[nH]nc(C4CCC(N5CCCC5)CC4)c3cc2C(C)C)cn2ncnc12 (single isomer, unassigned) [Example 130, 6-(5-isopropyl-3-(4-(pyrrolidin-1-yl)cyclohexyl)-1H-indazol-6-yl)-8-methyl-[1,2,4]triazolo[1,5-a]pyridine]
2 | 2 | 0.3 | 4570 | Cc1cc(-c2cc3[nH]nc(C4CCC(N5CCCC5)CC4)c3cc2C(C)C)cn2ncnc12 (single isomer, unassigned) [Example 131, 6-(5-isopropyl-3-(4-(pyrrolidin-1-yl)cyclohexyl)-1H-indazol-6-yl)-8-methyl-[1,2,4]triazolo[1,5-a]pyridine]
3 | 2.5 | 0.2 | 15900 | Cc1cc(-c2cc3[nH]nc(C4CCC(N5CC(F)(F)C5)CC4)c3cc2C(C)C)cn2ncnc12 (single isomer, unassigned) [Example 134, 6-(3-(4-(3,3-difluoroazetidin-1-yl)cyclohexyl)-5-isopropyl-1H-indazol-6-yl)-8-methyl-[1,2,4]triazolo[1,5-a]pyridine]
4 | 15.5 | 9.4 | 18900 | Cc1cc(-c2cc3[nH]nc(C4CCC(N5CC(F)(F)C5)CC4)c3cc2C(C)C)cn2ncnc12 (single isomer, unassigned) [Example 135, 6-(3-(4-(3,3-difluoroazetidin-1-yl)cyclohexyl)-5-isopropyl-1H-indazol-6-yl)-8-methyl-[1,2,4]triazolo[1,5-a]pyridine]
5 | 26.3 | 3.9 | 4900 | Cc1cc(-c2cc3[nH]nc(C4CCC(N5CC(C)(C)C5)CC4)c3cc2C(C)C)cn2ncnc12 (single isomer, unassigned) [Example 136, 6-(3-(4-(3,3-dimethylazetidin-1-yl)cyclohexyl)-5-isopropyl-1H-indazol-6-yl)-8-methyl-[1,2,4]triazolo[1,5-a]pyridine]
6 | 5.5 | 0.6 | 8680 | Cc1cc(-c2cc3[nH]nc(C4CCC(N5CC(C)(C)C5)CC4)c3cc2C(C)C)cn2ncnc12 (single isomer, unassigned) [Example 137, 6-(3-(4-(3,3-dimethylazetidin-1-yl)cyclohexyl)-5-isopropyl-1H-indazol-6-yl)-8-methyl-[1,2,4]triazolo[1,5-a]pyridine]
7 | 1 | 0.5 | 5870 | Cc1cc(-c2cc3[nH]nc(C4CCC(N5CCC5)CC4)c3cc2C(C)C)cn2ncnc12 (single isomer, unassigned) [Example 138, 6-(3-(4-(azetidin-1-yl)cyclohexyl)-5-isopropyl-1H-indazol-6-yl)-8-methyl-[1,2,4]triazolo[1,5-a]pyridine]
8 | 1.2 | 0.1 | 6250 | Cc1cc(-c2cc3[nH]nc(C4CCC(N5CCC5)CC4)c3cc2C(C)C)cn2ncnc12 (single isomer, unassigned) [Example 139, 6-(3-(4-(azetidin-1-yl)cyclohexyl)-5-isopropyl-1H-indazol-6-yl)-8-methyl-[1,2,4]triazolo[1,5-a]pyridine]
9 | 0.2 | 0.1 | 3430 | COc1cc(-c2cc3[nH]nc(C4CCC(N(C)C)CC4)c3cc2C(C)C)cn2ncnc12 (single isomer, unassigned) [Example 140, 4-(5-isopropyl-6-(8-methoxy-[1,2,4]triazolo[1,5-a]pyridin-6-yl)-1H-indazol-3-yl)-N,N-dimethylcyclohexan-1-amine]
10 | 5.3 | 2.9 | 3720 | COc1cc(-c2cc3[nH]nc(C4CCC(N(C)C)CC4)c3cc2C(C)C)cn2ncnc12 (single isomer, unassigned) [Example 141, 4-(5-isopropyl-6-(8-methoxy-[1,2,4]triazolo[1,5-a]pyridin-6-yl)-1H-indazol-3-yl)-N,N-dimethylcyclohexan-1-amine]
11 | 1.3 | 0.2 | 9710 | Cc1cc(-c2cc3[nH]nc(C4CCC(N5CC6(C5)CS(=O)(=O)C6)CC4)c3cc2C(C)C)cn2ncnc12 (single isomer, unassigned) [Example 142, 6-(4-(5-isopropyl-6-(8-methyl-[1,2,4]triazolo[1,5-a]pyridin-6-yl)-1H-indazol-3-yl)cyclohexyl)-2-thia-6-azaspiro[3.3]heptane 2,2-dioxide]
12 | 3.5 | 1.5 | 6710 | Cc1cc(-c2cc3[nH]nc(C4CCC(N5CC6(C5)CS(=O)(=O)C6)CC4)c3cc2C(C)C)cn2ncnc12 (single isomer, unassigned) [Example 143, 6-(4-(5-isopropyl-6-(8-methyl-[1,2,4]triazolo[1,5-a]pyridin-6-yl)-1H-indazol-3-yl)cyclohexyl)-2-thia-6-azaspiro[3.3]heptane 2,2-dioxide]
